Results as given in patent US20220289794A1, “SYNTHETIC ANTIMICROBIAL PEPTIDES” (priority 2019, published 2022).

Columns and labels:
[1] = system: P. aeruginosa (ATCC 10145); test: Broad-spectrum activity against Gram-Negative bacteria (MIC); format: cell-based; conditions: Table 16, Gram-negative panel
[2] = system: Pseudomonas aeruginosa (ATCC 27883); conditions: P. aeruginosa ATCC 27883
[3] = system: Enterococcus faecium ATCC 700221; conditions: E. faecium ATCC 700221
[4] = system: P. aeruginosa (ATCC BAA-1744); test: Broad-spectrum activity against Gram-Negative bacteria (MIC); format: cell-based; conditions: Table 16, Gram-negative panel
B. subtilis (ATCC-6633) = test: Broad-spectrum activity against Gram-Positive bacteria (MIC); format: cell-based; parameters: unit not given here
[5] = system: Streptococcus pneumoniae ATCC 51938; conditions: S. pneumoniae ATCC 51938
[6] = system: Klebsiella pneumoniae ATCC 13883; conditions: Table 16, Gram-negative panel
[7] = system: Klebsiella pneumoniae (ATCC BAA-1705); conditions: Table 16, Gram-negative panel
[8] = system: Methicillin-resistant Staphylococcus aureus MRSA (ATCC BAA-1556); conditions: MRSA ATCC BAA-1556
S. aureus ATCC 29213 = conditions: S. aureus ATCC 29213
B. cereus (ATCC-13061) = test: Broad-spectrum activity against Gram-Positive bacteria (MIC); format: cell-based; parameters: unit not given here
[9] = system: A. baumannii (ATCC BAA-1605); test: Broad-spectrum activity against Gram-Negative bacteria (MIC); format: cell-based; conditions: Table 16, Gram-negative panel
[10] = system: Enterococcus faecium ATCC 27270; conditions: E. faecium ATCC 27270
E. coli (ATCC BAA-2452) = test: Broad-spectrum activity against Gram-Negative bacteria (MIC); format: cell-based; conditions: Table 16, Gram-negative panel
[11] = system: Enterococcus faecalis ATCC 29212; conditions: E. faecalis ATCC 29212
[12] = system: Enterococcus faecalis ATCC 51575; conditions: E. faecalis ATCC 51575
[13] = system: Streptococcus pneumoniae ATCC 49619; conditions: S. pneumoniae ATCC 49619
[14] = system: Escherichia coli (ATCC 25922); conditions: E. coli ATCC 25922

| Substance | MIC P. aeruginosa (ATCC 10145) [1] | MIC P. aeruginosa ATCC 27883 [2] | Broad-spectrum activity E. faecium (ATCC 700221) [3] | MIC P. aeruginosa (ATCC BAA-1744) [4] | Broad-spectrum activity B. subtilis (ATCC-6633) (B. subtilis (ATCC-6633)) | Broad-spectrum activity S. pneumoniae (ATCC 51938) [5] | MIC K. pneumonia (ATCC 13883) [6] | MIC K. pneumonia (ATCC BAA-1705) [7] | MIC MRSA ATCC BAA-1556 [8] | MIC S. aureus ATCC 29213 (S. aureus ATCC 29213) | Broad-spectrum activity B. cereus (ATCC-13061) (B. cereus (ATCC-13061)) | MIC A. baumannii (ATCC BAA-1605) [9] | Broad-spectrum activity E. faecium (ATCC 27270) [10] | MIC E. coli (ATCC BAA-2452) (E. coli (ATCC BAA-2452)) | Broad-spectrum activity E. faecalis (ATCC 29212) [11] | Broad-spectrum activity E. faecalis (ATCC 51575) [12] | Broad-spectrum activity S. pneumoniae (ATCC 49619) [13] | MIC E. coli ATCC 25922 [14] |
| --- | --- | --- | --- | --- | --- | --- | --- | --- | --- | --- | --- | --- | --- | --- | --- | --- | --- | --- |
| c[Arg-Arg-Arg-Arg-dip-Trp-Dip] [IFX-090] | 25 µg/mL | 12.5 µg/mL | 6.2 | 25 µg/mL | 1.5 | 12.5 | 50 µg/mL | 25 µg/mL | 3.1 µg/mL | 3.1 µg/mL | 6.2 | 12.5 µg/mL | 3.1 | 12.5 µg/mL | 6.2 | 12.5 | 25 | 12.5 µg/mL |
| c[Arg-Arg-Arg-Arg-dip-trp-dip] [IFX-100] | 50 µg/mL | 12.5 µg/mL | 6.2 | 25 µg/mL | 1.5 | 12.5 | > 50 µg/mL | 25 µg/mL | 1.5 µg/mL | 1.5 µg/mL | 3.1 | 12.5 µg/mL | 3.1 | 25 µg/mL | 6.2 | 12.5 | 25 | 12.5 µg/mL |
| c[Arg-Arg-Arg-Arg-dip-Dip-Dip] [IFX-062] | 25 µg/mL | 6.2 µg/mL | 3.1 | 12.5 µg/mL | 1.5 | 12.5 | 50 µg/mL | 12.5 µg/mL | 3.1 µg/mL | 3.1 µg/mL | 3.1 | 6.2 µg/mL | 3.1 | 6.2 µg/mL | 6.2 | 12.5 | 50 | 12.5 µg/mL |
| c[Arg-Arg-Arg-Arg-dip-Trp-dip] [IFX-098] | 25 µg/mL | 12.5 µg/mL | 6.2 | 25 µg/mL | 1.5 | 25 | 50 µg/mL | 25 µg/mL | 1.5 µg/mL | 3.1 µg/mL | 3.1 | 12.5 µg/mL | 3.1 | 25 µg/mL | 6.2 | 12.5 | 50 | 12.5 µg/mL |
| c[arg-Arg-Arg-Arg-Dip-Trp-Dip] [IFX-094] | 50 µg/mL | 6.2 µg/mL | 12.5 | 25 µg/mL | 3.1 | 25 | 50 µg/mL | 12.5 µg/mL | 3.1 µg/mL | 3.1 µg/mL | 6.2 | 12.5 µg/mL | 6.2 | 12.5 µg/mL | 12.5 | 12.5 | 25 | 12.5 µg/mL |
